Data taken from patent publication US20240140953A1, “INHIBITORS OF MENIN-MLL INTERACTION” (BIOMEA FUSION, INC., priority 2018, published 2024).
Read-outs that look alike come from different tables or passages of the source.

Assays:
OCI-AML-3 = test: Long term proliferation, InCell (Table 3C), OCI-AML-3; assay type: cell-based; settings: Homo sapiens, OCI-AML-3, InCell
Protocol: Compounds of invention are tested in the 5 suspension lines by 14-day long-term proliferation assay.
The compound is tested in 10-pt dose titration (client will determine the starting concentration and the dilution scheme) and the final DMSO concentration is kept at 0.2%.
Vehicle and media control are also included. All treatments are done in triplicate.
• 1) On Day 0, in a flat bottom 96-well plate, add 100 μL of cells per well at the densities optimized. • 2) Prepare compounds in DMSO at 500× final concentration. Dilute the compounds with DMSO at the dilution. • 3) Dilute the compounds in media at 3×final concentration. Add 50 μL of compound or DMSO at 3× final concentration to each well. Final volume in each well is 150 μL, and final concentration of DMSO is 0.2%. Also include 3 untreated control wells, by adding 50 μL of media alone. 4) Incubate plates for 96 hours. • 5) Count the cells using the Acumen, with capabilities for 96-well plates. Pipette cells up and down to mix in each well, and add desired volume of cells to a new flat bottom poly-D-lysine 96-well plate. Add Calcein AM at 1 μM final concentration. Let cells sit at RT for 10 mins followed by a quick spin to get cells settled on the bottom of the wells. Incubate the plate for additional 40 mins in the incubator. Take out the plate and read by Acumen. Calculate the cell numbers taken into account the dilution factors. • 6) Split the master plate. To do this take the total viable cell count calculated using step 5). Take the average of the replicates for each dose in order to be used in splitting the cells. • 7) Use a 96 well V-bottom plate to spin down the cells to remove old media and compound to split the cells. Based on the split ratio place the proper amount of media and cells into the V-bottom plate, and spin the plate at 1100 rpm for 5 minutes. • 8) Following the spin remove the media, careful not to disturb the cellpellet. • 9) Re-suspend pellet in 100 μL fresh media, and add to a new 96-well flat bottom plate. • 10) Add fresh compound, in the same manner as Step 3). • 11) Incubate plates for 72 hours. Repeat steps 5)-10) on Day 7. • 12) Incubate plates for 96 hours. Repeat Step 5)-10) on Day 11. • 13) Incubate 72 hours and repeat step 5) to take a final count. • 14) Data Analysis
To calculate growth for days 4, 7, 11, and 14: • Calculate the split factor for day 4 to 7, day 7 to 11, and day 11-14.

MV4-11 = test: Long term proliferation, Cell Titer-Glo (Table 3B), MV4-11; assay type: cell-based; settings: Homo sapiens, MV4-11, Cell Titer-Glo
[1] = 96 h, Day 4, read-out: Day 4 IC50
[2] = 264 h, Day 11, read-out: Day 11 IC50

Question: Which results are given for O=C(Nc1ccc(-c2cc3c(N4CCOCC4)ncnc3[nH]2)cc1)Nc1cc(-c2cccnc2)n[nH]1 [Compound 9, 1-{4-[4-(morpholin-4-yl)-7H-pyrrolo[2,3-d]pyrimidin-6-yl]phenyl}-3-[3-(pyridin-3-yl)-1H-pyrazol-5-yl]urea]?
Answer: IC50 (OCI-AML-3; [1]): 370 nM; IC50 (OCI-AML-3; [2]): 720 nM; IC50 (MV4-11; [1]): 740 nM; IC50 (MV4-11; 168 h, Day 7, read-out: Day 7 IC50): 380 nM; IC50 (MV4-11; [2]): 320 nM; IC50 (MV4-11; 336 h, Day 14, read-out: Day 14 IC50): 210 nM
